From patent publication US12209142B2, “SARS-CoV-2 epitope-targeted peptide immunostimulants” (Institute for Systems Biology, priority 2020, dated 2025) come the findings set out here.

Format in all cases: cell-based, Klebsiella pneumoniae
Assay [1] relates to K. pneumoniae cells (strain BAA 2146). The assay can be described thus: Flow cytometry of AR-PCC-driven opsonization by anti-DNP antibodies. Background: In flow cytometry, cells or beads pass a laser one at a time.
Assay [2] has as its system K. pneumoniae cells (strain BAA 1705). Briefly: Gentamicin protection assay: phagocytosis and opsonophagocytic killing (OPK) by macrophages. The note with it: 1 h. On the procedure: FIGS. 7A and 7B show a gentamicin protection assay that evaluates EPI-driven phagocytosis and opsonophagocytic killing (OPK) of K. pneumoniae cells by murine bone-marrow-derived macrophages. FIG. 7A is a flow diagram depicting the assay used to evaluate EPI-driven opsonophagocytic killing (OPK) of K. pneumoniae cells. Briefly, K. pneumoniae cells (strain BAA 1705) opsonized by EPIs (AR-PCCs) and anti-DNP antibodies were incubated with macrophages for 1 or 24 h. Macrophages were lysed, and the lysate was plated to obtain bacterial colonies that were subsequently counted. FIG. 7B is a plot of colony counts for various samples subjected to the OPK assay. […] All EPIs (AR-PCCs) were used at a 5 μM concentration, measurements were conducted in triplicate, and error bars reflect standard deviations. cy(LLFFA) is SEQ ID NO:11.
It also tested whether DNP-conjugated EPIs could promote the opsonophagocytic killing (OPK) of K. pneumoniae by macrophages. This was tested by using an OPK assay. Briefly, K. pneumoniae cells were treated with EPI and then anti-DNP antibody before being exposed to macrophages for either 6 or 24 hours. During this incubation period, macrophages that recognize K. pneumoniae cells will phagocytose them, and phagocytosed bacteria will remain viable for up to 6 hours, but within 24 hours are rendered inviable by OPK. Thus, macrophages were isolated after 6 and 24 hours of incubation with K. pneumoniae, lysed them, and plated and grew the lysate, which yielded bacterial colonies that reflect the phagocytosis (at 6 hrs) or OPK (at 24 hrs) of bacteria.
Given that cy(LLFFF)-DNP (SEQ ID NO:5) recruits antibodies to K. pneumoniae surfaces, it was expected that K. pneumoniae opsonized in this manner would be more susceptible to phagocytosis by macrophages. AR-PCC-driven phagocytosis and OPK were quantified by a gentamicin protection assay, as depicted in FIG. 7A. For this assay, K. pneumoniae cells (strain BAA 1705) were treated with cy(LLFFF)-DNP (SEQ ID NO:5), opsonized by anti-DNP antibodies, and then incubated with murine bone-marrow-derived macrophages (BMDMs). BMDMs were subsequently exposed to a solution containing gentamicin, to which K. pneumoniae strain BAA 1705 is susceptible, to kill any extracellular bacteria. Phagocytosed bacteria remain viable inside BMDMs for at least 1 h, yet are rendered inviable after 24 h by OPK (FIG. 13). Macrophages harvested at 1 h and 24 h were lysed and plated to generate bacterial colonies, which were enumerated to quantify phagocytosis and OPK.
Opsonophagocytic killing (OPK) assays. Klebsiella pneumoniae BAA1705 was treated with DNP-PCCs followed by incubation with anti-DNP antibody, as described above in the “Cell-Based ELISAs” section. These opsonized bacteria were then used to infect BMDMs at a multiplicity of infection of 50 for 0.5 h at 37° C. Bacteria were then washed by using RPMI 1640 Media and BMDMs were left in cell culture medium containing gentamicin (100 μg/ml). After 1 h and 24 h BMDMs were washed to remove gentamicin and intracellular bacteria were harvested by lysing BMDMs in RPMI media containing 0.2% Triton X 100. Bacterial CFUs were enumerated by plating onto LB agar. Bacterial counts at 1 h indicated the degree of opsonization while those at 24 h served as a measure of microbicidal activity of macrophages. For these measurements, anti-MrkA antibody and K. pneumoniae antiserum were used at dilutions of 5 μg/mL each.

Assay [3] concerns K. pneumoniae cells, BAA 1705 and BAA 2146. The assay can be described thus: Whole-cell ELISA of anti-DNP recruitment to bacterial cell surfaces. The note with it: AR-PCC plus anti-DNP; cy(LLFFF)-DNP 5 or 10 μM, cy(HNGPT)-DNP 50 and 100 μM. An excerpt:
FIG. 12 is a plot of 450 nm absorbances obtained from a cell-based ELISA assay conducted on two strains of K. pneumoniae cells, BAA 1705 (black) and BAA 2146 (grey), that were either untreated or opsonized by EPIs (AR-PCCs) and/or antibodies. […] This establishes EPI-driven opsonization by cy(LLFFF)-DNP (SEQ ID NO:5). […] This indicates opsonization by cy(LLFFF)-DNP (SEQ ID NO:5) is specific and is driven by the ligand cy(LLFFF) (SEQ ID NO:5), rather than the Lys(DNP) moiety.
The protocol for detecting anti-DNP recruitment to bacterial cell surfaces is as follows. […] After washing, bacteria were incubated with HRP conjugated secondary antibody (Bio-Rad) at a dilution of 1:10,000 for 1 h at 37° C. Unbound antibody was washed off by using PBS-BSA and the cells were then developed by using TMB reagent. […] Anti-MrkA antibody was procured from Biorbyt (orb51318) and used at a concentration of 5 μg/mL, and K. pneumoniae antiserum was obtained from abcam (ab20947) and used at a concentration of 5 μg/mL.
On the technique in general: An ELISA detects its analyte on a solid surface through an enzyme-linked reagent.

Several values for one entry are separate records, joined by “and”; a condition that tells them apart may be missing. Identical values can stand only once. Bridges are numbered along the chain shown (N, C = ends). Where no end group is shown, it is not given here. [ ]: non-standard residue; d: D form. Lys(N3) = [N-]=[N+]=NCCCC[C@H](N)C(=O)O; Pra = C#CC[C@H](N)C(=O)O Some results are limits rather than exact numbers.

Consider “cy(LLFFF)-DNP: cy(LLFFF) tagged with a DNP-modified lysine residue; lead AR-PCC ([Pra]LLFFF[Lys(N3)]; bridge 1-7; not fully specified (bridges); printed as cy(LLFFF)-DNP; also: tagged with a DNP-modified lysine residue, position not given here)”, for which the “fluorescence of cells (opsonization by anti-DNP)” value in assay [1] (cy(LLFFF)-DNP 1 or 5 μM, cy(HNGPT) control 50 μM, plus fluorescent anti-DNP) is on record as “much higher fluorescence”. For the same substance, in assay [2] (AR-PCC 5 μM), the “phagocytosis at 1 h, AR-PCC only (no anti-DNP)” value is “None of these treatments elicited phagocytosis above basal levels”. The “colony counts at 1 h, AR-PCC plus anti-DNP antibody” value in assay [2] (AR-PCC 5 μM, murine BMDMs) was 89,000 CFU and 85,000 CFU. Besides, in assay [2] (plus anti-DNP), the “level of phagocytosis lower than that induced by K. pneumoniae antiserum and anti-MrkA treatment” value is “about 15%”. The “450 nm absorbance, anti-DNP recruitment to cells” value in assay [3] is listed as “much larger signal”.
For “cy(HNGPT)-DNP: control AR-PCC, DNP-conjugated dummy ligand ([Lys(N3)]HNGPT[Pra]; triazole 1-7; also: DNP-conjugated) [reference compound]”, in assay [1] (AR-PCC at 50 μM plus Alexafluor 488 anti-DNP, strain BAA 2146), the “fluorescence intensity of cells (predominantly)” value is on record as < 1.0×10^1. The “450 nm absorbance, anti-DNP recruitment to cells” value in assay [3] was “Much smaller signals”.
